Data: patent US20170121315A1, “HETEROBICYCLICALLY SUBSTITUTED 4-OXOBUTANE ACID DERIVATIVES AND USE THEREOF” (priority 2014, published 2017)

Columns and labels:
[1] = target: T1, human macrophage elastase (HME/hMMP-12) (Homo sapiens, UniProt P39900); assay: In vitro HME inhibition test (standard or high-sensitivity); assay type: biochemical; conditions: in some cases mean values, rounded to two significant figures
T1 construct: purchased R&D Systems 917-MP
Procedure, shortened: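 Autoactivated HME (0.5 nM; high-sensitivity format 0.05 nM, ~16 h) with 5 μM quenched Mca-PLGLEEA-Dap(Dnp)-NH2 substrate in HEPES pH 7.4, NaCl, CaCl2, ZnCl2, EDTA, Brij buffer, 2 h at 37° C. Fluorescence at ex 323/em 393 nm; IC50 from signal versus concentration.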

rat hepatocytes = assay: Hepatocyte assay for determination of metabolic stability; assay type: in vitro ADME; conditions: after incubation with rat hepatocytes
Description: The metabolic stability of test compounds towards hepatocytes is determined by incubating the compounds at low concentrations (preferably below or around 1 μM) and at low cell counts (preferably at 1*10^6 cells/ml) in order to ensure maximum linearity of kinetic conditions in the experiment. Seven samples from the incubation solution are taken for the LC-MS analysis within a fixed time pattern, in order to determine the half-life (i.e. the degradation) of the particular compound. This half-life is used to calculate various “Clearance” parameters (CL) and “Fmax” values (see below).
The CL and Fmax values are a measure of the phase 1 and phase 2 metabolism of the compounds in the hepatocytes. In order to minimize the influence of the organic solvent on the enzymes in the incubation batches, the concentration thereof is generally limited to 1% (acetonitrile) or 0.1% (DMSO).
For all species and breeds, a hepatocyte cell count in the liver of 1.1*10^8 cells/g of liver is expected.

T1 sequence (P39900 106-470): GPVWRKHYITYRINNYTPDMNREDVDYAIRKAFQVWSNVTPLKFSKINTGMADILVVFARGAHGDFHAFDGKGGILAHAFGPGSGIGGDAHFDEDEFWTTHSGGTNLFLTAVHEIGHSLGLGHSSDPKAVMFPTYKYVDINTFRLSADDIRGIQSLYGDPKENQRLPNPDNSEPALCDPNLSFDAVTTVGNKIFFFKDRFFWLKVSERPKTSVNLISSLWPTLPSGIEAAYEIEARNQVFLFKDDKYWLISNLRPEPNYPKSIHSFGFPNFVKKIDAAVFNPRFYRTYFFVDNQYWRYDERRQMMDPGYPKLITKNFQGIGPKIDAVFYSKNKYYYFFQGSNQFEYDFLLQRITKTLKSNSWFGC

Row | Structure (SMILES) | IC50 [1] [nM] | CLblood (calculated blood clearance, well-stirred) (rat hepatocytes) [mL/min/kg] | Fmax (maximum possible bioavailability after oral administration, well-stirred) (rat hepatocytes) [%]
1 | NC(=O)c1cccc(COc2ccc3oc(C(=O)CC(CCn4nnc5ccccc5c4=O)C(=O)O)cc3c2)c1 (racemic) [Example 32, (+/−)-4-{5-[(3-Carbamoylbenzyl)oxy]-1-benzofur-2-yl}-4-oxo-2-[2-(4-oxo-1,2,3-benzotriazin-3(4H)-yl)ethyl]butanoic acid] | 0.68 | 22 | 68.5
2 | CS(=O)(=O)c1ccc(COc2ccc3oc(C(=O)CC(CCn4nnc5ccccc5c4=O)C(=O)O)cc3c2)cc1 (racemic) [Example 38, (+/−)-4-(5-{[4-(Methylsulphonyl)benzyl]oxy}-1-benzofur-2-yl)-4-oxo-2-[2-(4-oxo-1,2,3-benzotriazin-3(4H)-yl)ethyl]butanoic acid] | 0.72 | 12.5 | 82.1
3 | O=C(CC(CCn1nnc2ccccc2c1=O)C(=O)O)c1coc2cc(OCc3ccc(Cl)c(Cl)c3)ccc12 (single isomer, unassigned) [Example 94, 4-{6-[(3,4-Dichlorobenzyl)oxy]-1-benzofur-3-yl}-4-oxo-2-[2-(4-oxo-1,2,3-benzotriazin-3(4H)-yl)ethyl]butanoic acid] | 0.82 | 25.8 | 63.2
4 | CCCCCOc1ccc2cc(C(=O)CC(CCn3nnc4ccccc4c3=O)C(=O)O)oc2c1 (single isomer, unassigned; (+)) [Example 57, (+)-4-Oxo-2-[2-(4-oxo-1,2,3-benzotriazin-3(4H)-yl)ethyl]-4-[6-(pentyloxy)-1-benzofur-2-yl]butanoic acid] | 2.1 | 35.7 | 48.9
5 | O=C(CC(CCn1nnc2ccccc2c1=O)C(=O)O)c1coc2cc(OCC3CCOCC3)ccc12 (single isomer, unassigned; (-)) [Example 97, (−)-4-Oxo-2-[2-(4-oxo-1,2,3-benzotriazin-3(4H)-yl)ethyl]-4-[6-(tetrahydro-2H-pyran-4-ylmethoxy)-1-benzofur-3-yl]butanoic acid] | 25 | – | –
6 | CCCCCCOc1ccc2c(C(=O)CC(CCn3nnc4ccccc4c3=O)C(=O)O)coc2c1 (single isomer, unassigned; (-)) [Example 99, (−)-4-[6-(Hexyloxy)-1-benzofur-3-yl]-4-oxo-2-[2-(4-oxo-1,2,3-benzotriazin-3(4H)-yl)ethyl]butanoic acid] | 100 | – | –
7 | CCCCCCCOc1ccc2c(C(=O)CC(CCn3nnc4ccccc4c3=O)C(=O)O)coc2c1 (single isomer, unassigned; (-)) [Example 102, (−)-4-[6-(Heptyloxy)-1-benzofur-3-yl]-4-oxo-2-[2-(4-oxo-1,2,3-benzotriazin-3(4H)-yl)ethyl]butanoic acid] | 2100 | – | –
8 | CC(C)COc1ccc2c(C(=O)CC(CCn3nnc4ccccc4c3=O)C(=O)O)coc2c1 (single isomer, unassigned; (-)) [Example 106, (−)-4-(6-Isobutoxy-1-benzofur-3-yl)-4-oxo-2-[2-(4-oxo-1,2,3-benzotriazin-3(4H)-yl)ethyl]butanoic acid] | 31 | – | –
9 | CCCCOc1ccc2c(C(=O)CC(CCn3nnc4ccccc4c3=O)C(=O)O)coc2c1 (single isomer, unassigned; (-)) [Example 109, (−)-4-(6-Butoxy-1-benzofur-3-yl)-4-oxo-2-[2-(4-oxo-1,2,3-benzotriazin-3(4H)-yl)ethyl]butanoic acid] | 10 | – | –
10 | O=C(CC(CCn1nnc2ccccc2c1=O)C(=O)O)c1cc2ccc(OCC3CC3)cc2s1 (single isomer, unassigned; (-)) [Example 113, (−)-4-[6-(Cyclopropylmethoxy)-1-benzothiophen-2-yl]-4-oxo-2-[2-(4-oxo-1,2,3-benzotriazin-3(4H)-yl)ethyl]butanoic acid] | 4300 | – | –
11 | O=C(CC(CCn1nnc2ccccc2c1=O)C(=O)O)c1cc2cc(OCC3CCCCC3)ccc2o1 (single isomer, unassigned; enantiomer 1) [Example 9, (−)-4-[5-(Cyclohexylmethoxy)-1-benzofur-2-yl]-4-oxo-2-[2-(4-oxo-1,2,3-benzotriazin-3(4H)-yl)ethyl]butanoic acid (enantiomer 1)] | 370 | – | –
12 | O=C(CC(CCn1nnc2ccccc2c1=O)C(=O)O)c1cc2cc(OCCCC(F)(F)F)ccc2o1 (single isomer, unassigned; enantiomer 1) [Example 12, (−)-4-Oxo-2-[2-(4-oxo-1,2,3-benzotriazin-3(4H)-yl)ethyl]-4-[5-(4,4,4-trifluorobutoxy)-1-benzofur-2-yl]butanoic acid (enantiomer 1)] | 900 | – | –
13 | O=C(CC(CCn1nnc2ccccc2c1=O)C(=O)O)c1cc2cc(OCC3CCCC3)ccc2o1 (single isomer, unassigned; enantiomer 1) [Example 17, (−)-4-[5-(Cyclopentylmethoxy)-1-benzofur-2-yl]-4-oxo-2-[2-(4-oxo-1,2,3-benzotriazin-3(4H)-yl)ethyl]butanoic acid (enantiomer 1)] | 94 | – | –
14 | O=C(CC(CCn1nnc2ccccc2c1=O)C(=O)O)c1cc2cc(OCC3CCCCC3)ccc2o1 (single isomer, unassigned; enantiomer 2) [Example 10, (+)-4-[5-(Cyclohexylmethoxy)-1-benzofur-2-yl]-4-oxo-2-[2-(4-oxo-1,2,3-benzotriazin-3(4H)-yl)ethyl]butanoic acid (enantiomer 2)] | 0.62 | – | –
15 | O=C(CC(CCn1nnc2ccccc2c1=O)C(=O)O)c1cc2cc(OCC3CCCC3)ccc2o1 (single isomer, unassigned; enantiomer 2) [Example 18, (+)-4-[5-(Cyclopentylmethoxy)-1-benzofur-2-yl]-4-oxo-2-[2-(4-oxo-1,2,3-benzotriazin-3(4H)-yl)ethyl]butanoic acid (enantiomer 2)] | 6 | – | –

Other lines, results leading:

Row | IC50 [1] [nM] | CLblood (calculated blood clearance, well-stirred) (rat hepatocytes) [mL/min/kg] | Fmax (maximum possible bioavailability after oral administration, well-stirred) (rat hepatocytes) [%] | Structure (SMILES)
16 | 0.24 | 13.3 | 81.1 | O=C(CC(CCn1nnc2ccccc2c1=O)C(=O)O)c1noc2cc(OCC3CCOCC3)ccc12 (racemic) [Example 133, (+/−)-4-Oxo-2-[2-(4-oxo-1,2,3-benzotriazin-3(4H)-yl)ethyl]-4-[6-(tetrahydro-2H-pyran-4-ylmethoxy)-1,2-benzoxazol-3-yl]butanoic acid]
17 | 13 | – | – | O=C(CC(CCn1nnc2ccc(C(F)(F)F)cc2c1=O)C(=O)O)c1cc2ccc(OCC3CC3)cc2s1 (single isomer, unassigned; enantiomer 1) [Example 129, 4-[6-(Cyclopropylmethoxy)-1-benzothiophen-2-yl]-4-oxo-2-{2-[4-oxo-6-(trifluoromethyl)-1,2,3-benzotriazin-3(4H)-yl]ethyl}butanoic acid (enantiomer 1)]
18 | 24 | 19.7 | 71.8 | O=C(C[C@@H](CCn1nnc2ccccc2c1=O)C(=O)O)c1noc2cc(OCC3CCOCC3)ccc12 (single isomer, unassigned; enantiomer 1) [Example 134]
19 | 35 | – | – | O=C(CC(CCn1nnc2ccccc2c1=O)C(=O)O)c1noc2cc(OCc3ccc(F)cc3)ccc12 (single isomer, unassigned; enantiomer 1) [Example 137, 4-{6-[(4-Fluorobenzyl)oxy]-1,2-benzoxazol-3-yl}-4-oxo-2-[2-(4-oxo-1,2,3-benzotriazin-3(4H)-yl)ethyl]butanoic acid (enantiomer 1)]
20 | 15 | – | – | O=C(CC(CCn1nnc2ccccc2c1=O)C(=O)O)c1noc2cc(OCCC3CCCCC3)ccc12 (single isomer, unassigned; enantiomer 1) [Example 142, (−)-4-[6-(2-Cyclohexylethoxy)-1,2-benzoxazol-3-yl]-4-oxo-2-[2-(4-oxo-1,2,3-benzotriazin-3(4H)-yl)ethyl]butanoic acid (enantiomer 1)]
21 | 260 | – | – | O=C(O)[C@@H]1[C@@H](Cn2nnc3ccc(C(F)(F)F)cc3c2=O)CC[C@H]1C(=O)c1cc2cc(OCCc3ccccc3)ccc2o1 (single isomer, unassigned; enantiomer 1) [Example 158, (−)-(1RS,2SR,5RS)-2-{[4-Oxo-6-(trifluoromethyl)-1,2,3-benzotriazin-3(4H)-yl]methyl}-5-{[5-(2-phenylethoxy)-1-benzofur-2-yl]carbonyl}cyclopentanecarboxylic acid (enantiomer 1)]
22 | 0.33 | – | – | O=C(CC(CCn1nnc2ccccc2c1=O)C(=O)O)c1noc2cc(OCc3ccc(F)cc3)ccc12 (single isomer, unassigned; enantiomer 2) [Example 138, 4-{6-[(4-Fluorobenzyl)oxy]-1,2-benzoxazol-3-yl}-4-oxo-2-[2-(4-oxo-1,2,3-benzotriazin-3(4H)-yl)ethyl]butanoic acid (enantiomer 2)]
23 | 0.019 | – | – | O=C(CC(CCn1nnc2ccccc2c1=O)C(=O)O)c1noc2cc(OCCC3CCCCC3)ccc12 (single isomer, unassigned; enantiomer 2) [Example 143, (+)-4-[6-(2-Cyclohexylethoxy)-1,2-benzoxazol-3-yl]-4-oxo-2-[2-(4-oxo-1,2,3-benzotriazin-3(4H)-yl)ethyl]butanoic acid (enantiomer 2)]
